{"source": "patent US10543212B2", "about": "“Substituted amines for treating cardiac diseases” (Cardurion Pharmaceuticals, LLC, priority 2017, dated 2020)", "target": "T1, Full-length, GST-tagged, human CaMKIIδ (Homo sapiens, UniProt Q13557)", "T1 construct": "Full-Length, Glutathione-S-Transferase(GST)-Tagged, Human CaMKIIδ was purchased from Carna Biosciences; purchased Carna Biosciences 02-111", "T1 sequence (Q13557 1-478 isoform Q13557-12)": "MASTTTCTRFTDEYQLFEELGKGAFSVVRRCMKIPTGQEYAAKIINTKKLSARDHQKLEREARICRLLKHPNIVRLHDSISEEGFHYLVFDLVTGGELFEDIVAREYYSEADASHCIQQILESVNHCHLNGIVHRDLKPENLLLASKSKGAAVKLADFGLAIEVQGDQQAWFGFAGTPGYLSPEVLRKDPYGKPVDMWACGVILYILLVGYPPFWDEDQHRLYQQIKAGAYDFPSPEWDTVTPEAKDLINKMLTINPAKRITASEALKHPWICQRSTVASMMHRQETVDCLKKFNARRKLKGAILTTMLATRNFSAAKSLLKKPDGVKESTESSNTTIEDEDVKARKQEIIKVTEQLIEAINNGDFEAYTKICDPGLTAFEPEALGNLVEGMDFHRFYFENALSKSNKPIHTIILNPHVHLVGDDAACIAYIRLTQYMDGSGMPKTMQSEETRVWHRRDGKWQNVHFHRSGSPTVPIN", "assay": "CaMKIIδ binding assay (TR-FRET with BODIPY-labeled probe ligand)", "in_short": "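Compounds were tested as 4-fold, eight-point series for 1 hr at room temperature, and IC50 was obtained by logistic fitting against a 3 μM parent-compound control. Signal came from displacement of a 300 nM BODIPY ligand from 0.5 nM GST-CaMKIIδ, detected via Tb-anti-GST in calmodulin/Ca2+ (pH 7.6).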", "key": {"[1]": {"conditions": "CaMKIIδ binding assay, results of Table 2"}, "[2]": {"conditions": "Table 2, CaMKIIδ binding assay, activity given as class A/B/C"}, "[3]": {"conditions": "CaMKIIδ binding assay, activity class per Table 2"}, "[4]": {"conditions": "Table 2, activity class for CaMKIIδ"}}}
{"smiles": "C[C@@H](Cn1cnnn1)Oc1cc(-c2cnc(Nc3cn(C4CCN(C5CCS(=O)(=O)CC5)CC4)nc3C(F)(F)F)nc2)ccc1Cl", "note": "[Example 565, (S)-4-(4-(4-((5-(3-((1-(1H-tetrazol-1-yl)propan-2-yl)oxy)-4-chlorophenyl)pyrimidin-2-yl)amino)-3-(trifluoromethyl)-1H-pyrazol-1-yl)piperidin-1-yl)tetrahydro-2H-thiopyran 1,1-dioxide]", "values": [{"measurement": "IC50", "setting": "[1]", "result": "< 10", "unit": "nM"}]}
{"smiles": "COc1cc2c(cc1Nc1ncc(-c3ccc(Cl)c(O[C@@H](C)Cn4cnnn4)c3)cn1)CN(CC1COC1)CC2", "note": "[Example 499, (S)-N-(5-(3-((1-(1H-tetrazol-1-yl)propan-2-yl)oxy)-4-chlorophenyl)pyrimidin-2-yl)-6-methoxy-2-(oxetan-3-ylmethyl)-1,2,3,4-tetrahydroisoquinolin-7-amine]", "values": [{"measurement": "IC50", "setting": "[1]", "result": "< 10", "unit": "nM"}]}
{"smiles": "C[C@@H](Cn1cnnn1)Oc1cc(-c2cnc(Nc3cn(C4CCNCC4)nc3OCCF)nc2)ccc1Cl", "note": "[Example 824, (S)-5-(3-((1-(1H-tetrazol-1-yl)propan-2-yl)oxy)-4-chlorophenyl)-N-(3-(2-fluoroethoxy)-1-(piperidin-4-yl)-1H-pyrazol-4-yl)pyrimidin-2-amine]", "values": [{"measurement": "IC50", "setting": "[2]", "result": "< 10", "unit": "nM"}]}
{"smiles": "C[C@@H](Cn1cnnn1)Oc1cc(-c2cnc(Nc3cn(C4CCCCNC4=O)nc3OCC(F)(F)F)nc2)ccc1Cl", "note": "(stereo partly drawn) [Example 777, 3-(4-((5-(3-(((S)-1-(1H-tetrazol-1-yl)propan-2-yl)oxy)-4-chlorophenyl)pyrimidin-2-yl)amino)-3-(2,2,2-trifluoroethoxy)-1H-pyrazol-1-yl)azepan-2-one]", "values": [{"measurement": "IC50", "setting": "[2]", "result": "< 10", "unit": "nM"}]}
{"smiles": "C[C@@H](Cn1cnnn1)Oc1cc(-c2cnc(Nc3sc4c(c3C#N)CCC4)nc2)ccc1Cl", "note": "[Example 753, (S)-2-((5-(3-((1-(1H-tetrazol-1-yl)propan-2-yl)oxy)-4-chlorophenyl)pyrimidin-2-yl)amino)-5,6-dihydro-4H-cyclopenta[b]thiophene-3-carbonitrile]", "values": [{"measurement": "IC50", "setting": "[2]", "result": "≥ 100", "unit": "nM"}]}
{"smiles": "Cc1ccc(-c2cnc(Nc3cn([C@H]4CC[C@@H](N5CCOCC5)CC4)nc3C(F)(F)F)nc2)cc1O[C@@H](C)Cn1cnnn1", "note": "[Example 809, 5-(3-(((S)-1-(1H-tetrazol-1-yl)propan-2-yl)oxy)-4-methylphenyl)-N-(1-(cis-4-morpholinocyclohexyl)-3-(trifluoromethyl)-1H-pyrazol-4-yl)pyrimidin-2-amine]", "values": [{"measurement": "IC50", "setting": "[2]", "result": "10 to 100", "unit": "nM"}]}
{"smiles": "Cc1nccc(N2CC3(CC(n4cc(Nc5ncc(-c6ccc(Cl)c(O[C@@H](C)Cn7cnnn7)c6)cn5)c(OCC(F)(F)F)n4)C3)C2)n1", "note": "[Example 1000, (S)-5-(3-((1-(1H-tetrazol-1-yl)propan-2-yl)oxy)-4-chlorophenyl)-N-(1-(2-(2-methylpyrimidin-4-yl)-2-azaspiro[3.3]heptan-6-yl)-3-(2,2,2-trifluoroethoxy)-1H-pyrazol-4-yl)pyrimidin-2-amine]", "values": [{"measurement": "IC50", "setting": "[3]", "result": "< 10", "unit": "nM"}]}
{"smiles": "COc1nc(N2CCN(C3CCOC3)CC2)ccc1Nc1ncc(-c2ccc(Cl)c(O[C@@H](C)Cn3cnnn3)c2)cn1", "note": "(stereo partly drawn) [Example 640, 5-(3-(((S)-1-(1H-tetrazol-1-yl)propan-2-yl)oxy)-4-chlorophenyl)-N-(2-methoxy-6-(4-(tetrahydrofuran-3-yl)piperazin-1-yl)pyridin-3-yl)pyrimidin-2-amine]", "values": [{"measurement": "IC50", "setting": "[4]", "result": "10 to 100", "unit": "nM"}]}
{"smiles": "C[C@@H](Cn1cnnn1)Oc1cc(-c2cnc(Nc3cn(CC4CCN(C(=O)OC(C)(C)C)C4)nc3C(F)(F)F)nc2)ccc1Cl", "note": "(stereo partly drawn) [Example 571, tert-butyl 3-((4-((5-(3-(((S)-1-(1H-tetrazol-1-yl)propan-2-yl)oxy)-4-chlorophenyl)pyrimidin-2-yl)amino)-3-(trifluoromethyl)-1H-pyrazol-1-yl)methyl) pyrrolidine-1-carboxylate]", "values": [{"measurement": "IC50", "setting": "[1]", "result": "≥ 100", "unit": "nM"}]}
{"smiles": "C[C@@H](Cn1cnnn1)Oc1cc(-c2cnc(Nc3cn(CC4(O)CCC5(CC4)OCCO5)nc3OCC(F)(F)F)nc2)ccc1Cl", "note": "[Example 899, (S)-8-((4-((5-(3-((1-(1H-tetrazol-1-yl)propan-2-yl)oxy)-4-chlorophenyl)pyrimidin-2-yl)amino)-3-(2,2,2-trifluoroethoxy)-1H-pyrazol-1-yl)methyl)-1,4-dioxaspiro[4.5]decan-8-ol]", "values": [{"measurement": "IC50", "setting": "[3]", "result": "< 10", "unit": "nM"}]}
{"smiles": "C[C@@H](Cn1cnnn1)Oc1cc(-c2cnc(Nc3cn(C4CCN(C5CCOC(C)(C)C5)CC4)nc3C(F)(F)F)nc2)ccc1Cl", "note": "(stereo partly drawn) [Example 557, 5-(3-(((S)-1-(1H-tetrazol-1-yl)propan-2-yl)oxy)-4-chlorophenyl)-N-(1-(1-(2,2-dimethyltetrahydro-2H-pyran-4-yl)piperidin-4-yl)-3-(trifluoromethyl)-1H-pyrazol-4-yl)pyrimidin-2-amine]", "values": [{"measurement": "IC50", "setting": "[1]", "result": "< 10", "unit": "nM"}]}
{"smiles": "C[C@@H](Cn1cnnn1)Oc1cc(-c2cnc(Nc3cn(C4CC5(C4)CN(C4CCC4)C5)nc3C(F)(F)F)nc2)ccc1Cl", "note": "[Example 921, (S)-5-(3-((1-(1H-tetrazol-1-yl)propan-2-yl)oxy)-4-chlorophenyl)-N-(1-(2-cyclobutyl-2-azaspiro[3.3]heptan-6-yl)-3-(trifluoromethyl)-1H-pyrazol-4-yl)pyrimidin-2-amine]", "values": [{"measurement": "IC50", "setting": "[3]", "result": "< 10", "unit": "nM"}]}
{"smiles": "COCCn1nc(C)cc1Nc1ncc(-c2ccc(Cl)c(O[C@@H](C)Cn3cnnn3)c2)cn1", "note": "[Example 655, (S)-5-(3-((1-(1H-tetrazol-1-yl)propan-2-yl)oxy)-4-chlorophenyl)-N-(1-(2-methoxyethyl)-3-methyl-1H-pyrazol-5-yl)pyrimidin-2-amine]", "values": [{"measurement": "IC50", "setting": "[4]", "result": "≥ 100", "unit": "nM"}]}
{"smiles": "COc1cc2c(cc1Nc1ncc(-c3ccc(C#N)c(O[C@@H](C)Cn4cnnn4)c3)cn1)NCCC2", "note": "[Example 590, (S)-2-((1-(1H-tetrazol-1-yl)propan-2-yl)oxy)-4-(2-((6-methoxy-1,2,3,4-tetrahydroquinolin-7-yl)amino)pyrimidin-5-yl)benzonitrile]", "values": [{"measurement": "IC50", "setting": "[4]", "result": "< 10", "unit": "nM"}]}
{"smiles": "COc1cc(N2CCCN(C3CCOCC3)CC2)ccc1Nc1ncc(-c2ccc(Cl)c(O[C@@H](C)Cn3cnnn3)c2)cn1", "note": "[Example 693, (S)-5-(3-((1-(1H-tetrazol-1-yl)propan-2-yl)oxy)-4-chlorophenyl)-N-(2-methoxy-4-(4-(tetrahydro-2H-pyran-4-yl)-1,4-diazepan-1-yl)phenyl)pyrimidin-2-amine]", "values": [{"measurement": "IC50", "setting": "[4]", "result": "< 10", "unit": "nM"}]}
{"smiles": "C[C@@H](Cn1cnnn1)Oc1cc(-c2cnc(Nc3cn(C4CCN(CC#N)CC4)nc3C(F)(F)F)nc2)ccc1Cl", "note": "[Example 536, (S)-2-(4-(4-((5-(3-((1-(1H-tetrazol-1-yl)propan-2-yl)oxy)-4-chlorophenyl)pyrimidin-2-yl)amino)-3-(trifluoromethyl)-1H-pyrazol-1-yl)piperidin-1-yl)acetonitrile]", "values": [{"measurement": "IC50", "setting": "[1]", "result": "10 to 100", "unit": "nM"}]}
{"smiles": "CCn1cc(Nc2ncc(-c3ccc(Cl)c(O[C@@H](C)Cn4cnnn4)c3)cn2)c(-c2ccccc2)n1", "note": "[Example 643, (S)-5-(3-((1-(1H-tetrazol-1-yl)propan-2-yl)oxy)-4-chlorophenyl)-N-(1-ethyl-3-phenyl-1H-pyrazol-4-yl)pyrimidin-2-amine]", "values": [{"measurement": "IC50", "setting": "[4]", "result": "10 to 100", "unit": "nM"}]}
{"smiles": "COc1cccc(Cn2cc(Nc3ncc(-c4ccc(Cl)c(O[C@@H](C)Cn5cnnn5)c4)cn3)c(OCC(F)(F)F)n2)n1", "note": "[Example 928, (S)-5-(3-((1-(1H-tetrazol-1-yl)propan-2-yl)oxy)-4-chlorophenyl)-N-(1-((6-methoxypyridin-2-yl)methyl)-3-(2,2,2-trifluoroethoxy)-1H-pyrazol-4-yl)pyrimidin-2-amine]", "values": [{"measurement": "IC50", "setting": "[3]", "result": "10 to 100", "unit": "nM"}]}
{"smiles": "COc1ccc(Cn2cc(Nc3ncc(-c4ccc(Cl)c(O[C@@H](C)Cn5cnnn5)c4)cn3)c(OCC(F)(F)F)n2)cn1", "note": "[Example 926, (S)-5-(3-((1-(1H-tetrazol-1-yl)propan-2-yl)oxy)-4-chlorophenyl)-N-(1-((6-methoxypyridin-3-yl)methyl)-3-(2,2,2-trifluoroethoxy)-1H-pyrazol-4-yl)pyrimidin-2-amine]", "values": [{"measurement": "IC50", "setting": "[3]", "result": "< 10", "unit": "nM"}]}
{"smiles": "COc1cc2c(cc1Nc1ncc(-c3ccc(C#N)c(O[C@@H](C)Cn4cncn4)c3)cn1)C(=O)N(C1CCC1)C2", "note": "[Example 443, (S)-2-((1-(1H-1,2,4-triazol-1-yl)propan-2-yl)oxy)-4-(2-((2-cyclobutyl-6-methoxy-3-oxoisoindolin-5-yl)amino)pyrimidin-5-yl)benzonitrile]", "values": [{"measurement": "IC50", "setting": "[1]", "result": "10 to 100", "unit": "nM"}]}
{"smiles": "COc1cnc(N2CCC(C)(O)CC2)cc1Nc1ncc(-c2ccc(Cl)c(O[C@@H](C)Cn3cnnn3)c2)cn1", "note": "[Example 481, (S)-1-(4-((5-(3-((1-(1H-tetrazol-1-yl)propan-2-yl)oxy)-4-chlorophenyl)pyrimidin-2-yl)amino)-5-methoxypyridin-2-yl)-4-methylpiperidin-4-ol]", "values": [{"measurement": "IC50", "setting": "[1]", "result": "10 to 100", "unit": "nM"}]}
{"smiles": "C[C@@H](Cn1cnnn1)Oc1cc(-c2cnc(Nc3cn(C4Cc5ccccc5C4)nc3C(F)(F)F)nc2)ccc1Cl", "note": "[Example 724, (S)-5-(3-((1-(1H-tetrazol-1-yl)propan-2-yl)oxy)-4-chlorophenyl)-N-(1-(2,3-dihydro-1H-inden-2-yl)-3-(trifluoromethyl)-1H-pyrazol-4-yl)pyrimidin-2-amine]", "values": [{"measurement": "IC50", "setting": "[4]", "result": "≥ 100", "unit": "nM"}]}
{"smiles": "C[C@@H](Cn1cnnn1)Oc1cc(-c2cnc(Nc3cn(C4CCN(C5CCOCC5)CC4)nc3OCCF)nc2)ccc1Cl", "note": "[Example 825, (S)-5-(3-((1-(1H-tetrazol-1-yl)propan-2-yl)oxy)-4-chlorophenyl)-N-(3-(2-fluoroethoxy)-1-(1-(tetrahydro-2H-pyran-4-yl)piperidin-4-yl)-1H-pyrazol-4-yl)pyrimidin-2-amine]", "values": [{"measurement": "IC50", "setting": "[2]", "result": "< 10", "unit": "nM"}]}
{"smiles": "C[C@H](CO)n1cc(Nc2ncc(-c3ccc(Cl)c(O[C@@H](C)Cn4cnnn4)c3)cn2)c(OCC(F)(F)F)n1", "note": "[Example 787, (R)-2-(4-((5-(3-(((S)-1-(1H-tetrazol-1-yl)propan-2-yl)oxy)-4-chlorophenyl)pyrimidin-2-yl)amino)-3-(2,2,2-trifluoroethoxy)-1H-pyrazol-1-yl)propan-1-ol]", "values": [{"measurement": "IC50", "setting": "[2]", "result": "< 10", "unit": "nM"}]}
{"smiles": "C[C@@H](Cn1cnnn1)Oc1cc(-c2cnc(Nc3cn(C4CCN(C5COC5)CC4)nc3C(F)(F)F)nc2)ccc1Cl", "note": "[Example 562, (S)-5-(3-((1-(1H-tetrazol-1-yl)propan-2-yl)oxy)-4-chlorophenyl)-N-(1-(1-(oxetan-3-yl)piperidin-4-yl)-3-(trifluoromethyl)-1H-pyrazol-4-yl)pyrimidin-2-amine]", "values": [{"measurement": "IC50", "setting": "[1]", "result": "10 to 100", "unit": "nM"}]}
